Two compounds from patent publication US20100069249A1, “HERBICIDE COMBINATION COMPRISING DIMETHOXYTRIAZINYL-SUBSTITUTED DIFLUOROMETHANESULFONYLANILIDES” (BAYER CROPSCIENCE AG, priority 2008, published 2010) can be followed below.

Assay in all cases: Post-emergence action against weeds, greenhouse pot test
What all share (format): in vivo

In assay [1] the test system is Fallopia (ex Polygonum) convolvulus (POLCO). The settings on record: 21 DAT; B 50 g of ai/ha. The procedure: (§1) Seeds or rhizome pieces of mono- and dicotyledonous harmful and useful plants were placed in peat pots (diameter 4 cm) filled with sandy loam and then covered with soil. The pots were kept in a greenhouse under optimum conditions. In addition, harmful plants encountered in paddy rice cultivation were cultivated in pots with a water level 2 cm above the soil surface.
About three weeks after the start of the cultivation, the test plants were treated at the 2- to 3-leaf stage. The herbicides, formulated as powder or liquid concentrates, were, either alone or in the combinations according to the invention, sprayed in various dosages on to the green parts of the plants using an application rate of 600 l of water/ha (converted). For further cultivation of the plants, the pots were then again kept under optimum conditions in a greenhouse. […]
The percentages from the treatments with the herbicides alone (=individual application) and with the combinations according to the invention (=mixtures) were employed to calculate interactions using the method of Colby. When the observed efficacies of the mixtures exceed the formal sum of the values of the tests with individual applications, they also exceed the expected value according to Colby, which is calculated using the formula below (cf. S. R. Colby; in Weeds 15 (1967) pp. 20 to 22): […]

In assay [2] the test system is Matricaria inodora (MATIN). The settings on record: 21 DAT; B 50 g of ai/ha. The procedure: as §1
(§2) About three weeks after the start of the cultivation, the test plants were treated at the 2- to 3-leaf stage. The herbicides, formulated as powder or liquid concentrates, were, either alone or in the combinations according to the invention, sprayed in various dosages on to the green parts of the plants using an application rate of 600 l of water/ha (converted). For further cultivation of the plants, the pots were then again kept under optimum conditions in a greenhouse.
(§3) The visual scoring of the herbicidal effects was carried out in intervals up to 21 days after the treatment. Scoring was carried out in percent in comparison to the untreated control plants. 0%=no herbicidal activity, 100%=complete herbicidal activity=complete kill.
(§4) The percentages from the treatments with the herbicides alone (=individual application) and with the combinations according to the invention (=mixtures) were employed to calculate interactions using the method of Colby. When the observed efficacies of the mixtures exceed the formal sum of the values of the tests with individual applications, they also exceed the expected value according to Colby, which is calculated using the formula below (cf. S. R. Colby; in Weeds 15 (1967) pp. 20 to 22):
(§5) • A, B=activity of components A and B in percent at a dosage of a and b g of ai/ha (=gram of active substance per hectare), respectively. • E=expected value in % at a dosage of a+b g of ai/ha.

For a further assay, the system named is Oryza sativa (ORYSA). The procedure:
as §1, §2, §3, §4, §5

The next assay deals with Setaria viridis (SETVI). The settings on record: 21 DAT; B 50 g of ai/ha. The protocol: as §1, §2, §3, §4, §5
Assay [3] has as its system Triticum aestivum (TRZAS). The protocol: as §1, §2, §3, §4, §5
Assay [4] relates to Alopecurus myosuroides (ALOMY). The settings on record: 21 DAT. The procedure: as §1, §2, §3, §4, §5
A further assay deals with Viola tricolor (VIOTR). The settings on record: 21 DAT; B 50 g of ai/ha. The protocol: as §1, §2, §3, §4, §5
A further assay relates to Zea mays (ZEAMX). The protocol: as §1, §2, §3, §4, §5

`CP(=O)(O)CC[C@H](N)C(=O)O` [B1-8, (2S)-2-amino-4-[hydroxy(methyl)phosphinyl]butanoic acid]: the “% activity found” value in assay [1] is 40%; in assay [2], 60%; in the assay with Oryza sativa (ORYSA) (10/21 DAT, B 50 g of ai/ha), 10%; in the assay on Oryza sativa (ORYSA) (10/21 DAT, B 150 g of ai/ha), 30%; in the assay on Oryza sativa (ORYSA) (21 DAT, B 150 g of ai/ha), 30%; with Setaria viridis (SETVI), 80%. Also, the “% activity found” value in assay [3] (10 DAT, B 50 g of ai/ha) came to 20%; in assay [3] (10 DAT, B 150 g of ai/ha), 30%; in assay [3] (21 DAT, B 50 g of ai/ha) it was 20%; in assay [4] (B 50 g of ai/ha), 0%; in assay [4] (B 150 g of ai/ha) it was 20%; in the assay on Viola tricolor (VIOTR), 40%. Also, the “% activity found” value with Zea mays (ZEAMX) (10 DAT, B 50 g of ai/ha) was 30%; in the assay with Zea mays (ZEAMX) (10 DAT, B 150 g of ai/ha) it was 40%; in the assay with Zea mays (ZEAMX) (21 DAT, B 50 g of ai/ha) it was 0%; in the assay with Zea mays (ZEAMX) (21 DAT, B 150 g of ai/ha), 0%.

For `COc1nc(OC)nc(C(=O)c2cccc(F)c2N(C)S(=O)(=O)C(F)F)n1` [A-1], the “% activity found” value came out at 0% in the assay on Oryza sativa (ORYSA) (10/21 DAT, A 4 g of ai/ha); 0% in assay [3] (21 DAT, A 12 g of ai/ha); 0% in the assay with Zea mays (ZEAMX) (21 DAT, A 4 g of ai/ha).
